We go through 34 molecules from patent US20050197364A1, “Amide compounds as ion channel ligands and uses thereof” (priority 2003, published 2005).

In this experiment the test system is VR1 receptor. The experiment in a line: High throughput calcium imaging assay (Fura2, Flex Station) of VR1 antagonists, pH 5.1 stimulus. The experiment is classed as cell-based. The conditions noted are these: 1 uM compound; inhibition of calcium ion influx induced by capsaicin stimulation.
Method: Therefore the functional activity of compounds at the VR1 receptor may be determined by measuring changes in intracellular calcium levels in 293 cells expressing capsaicin-insensitive VR1 receptor variants. A dual wavelength ratiometric dye, Fura2, was used as an indicator of relative levels of calcium ions in a 96 well format using a bench top scanning fluorometer with integrated fluidics and temperature control (Flex Station, Molecular Devices).
293 cells were grown on PDL coated 96-well black-walled plates, in the presence of a DMEM medium containing 5% Penstrep, 5% Glutamax, 200 ug/mL Hygromycin, 5 μg/mL Blasticide and 10% heat inactivated FBS. Prior to assay, the cells were loaded with 5 μg/mL Fura2 in normal saline solution at 37° C. for 40 minutes. Cells were then washed with normal saline to remove the dye.
The assay consists of two stages; a pre-treatment phase followed by a treatment phase.
50 μl of a compound solution was added to the cells (Pre-treatment). Immediately following, 50 μl of the test compound in a saline solution at pH 5.1 was added. Fura2 was excited at 340 and 380 nM to indicate relative calcium concentration. Changes in wavelength measurements were made throughout the course of the experiment in 4 second intervals over a period of 3 minutes. Responses were measured as peak fluorescence ratio after test compound addition minus baseline fluorescence ratio prior to pre-treatment and were calculated using SoftMaxPro softwareData were expressed as percentage inhibition calculated using Excel as follows: [formula]
For the molecule `COc1cc(C(=O)Nc2cc(OC)c(OC)c(OC)c2)ccc1-c1ncccc1Cl` [Compound 246], the “% Inhibition @ 1 uM” value is given as “+ + + + (“+ + + +” compound exhibited 75% or greater inhibition of calcium ion influx induced by capsaicin stimulation.)”.
Take `CCOc1ccc(NC(=O)c2ccc(-c3ncccc3Cl)cc2)cc1` [Compound 281]: the “% Inhibition @ 1 uM” value is “+ (“+” compound exhibited 0-25% inhibition of calcium ion influx induced by capsaicin stimulation.)”.
The same measure for `O=C(Nc1ccc(C(F)(F)F)cn1)c1ccc(-c2ncccc2Cl)cc1F` [Compound 97]: “+ (compound exhibited 0-25% inhibition of calcium ion influx induced by capsaicin stimulation)”; for `CCC(C)(C)NC(=O)c1ccc(-c2ncccc2Cl)cc1` [Compound 53]: “+ (compound exhibited 0-25% inhibition of calcium ion influx induced by capsaicin stimulation)”.
The same measure for `COc1cc(NC(=O)c2ccc(-c3ncccc3Cl)cn2)cc(OC)c1OC` [Compound 339]: “+ (“+” compound exhibited 0-25% inhibition of calcium ion influx induced by capsaicin stimulation.)”; for `CN1CCCc2ccc(NC(=O)c3ccc(-c4ncccc4Cl)cc3)cc21` [Compound 287]: “+ (“+” compound exhibited 0-25% inhibition of calcium ion influx induced by capsaicin stimulation.)”; for `CC(C)c1ccc(NC(=O)c2ccc(-c3ncccc3Cl)cc2)cc1` [Compound 25]: “+ + + + (compound exhibited 75% or greater inhibition of calcium ion influx induced by capsaicin stimulation)”.
In the case of `CC(C)Oc1cccc(NC(=O)c2ccc(-c3ncccc3Cl)c(F)c2)c1` [Compound 177], the “% Inhibition @ 1 uM” value is given as “+ (compound exhibited 0-25% inhibition of calcium ion influx induced by capsaicin stimulation)”.
Consider `COc1ccccc1NC(=O)c1ccc(-c2ncccc2Cl)c(OC)c1` [Compound 194], for which the “% Inhibition @ 1 uM” value is “+ + (compound exhibited 25-50% inhibition of calcium ion influx induced by capsaicin stimulation)”.
Consider `COc1cccc(NC(=O)c2ccc(-c3ncccc3Cl)c(F)c2)c1` [Compound 119], for which the “% Inhibition @ 1 uM” value was “+ (compound exhibited 0-25% inhibition of calcium ion influx induced by capsaicin stimulation)”.
Consider `COc1cc(C(=O)Nc2ccc(C)cc2C)ccc1-c1ncccc1Cl` [Compound 206], for which the “% Inhibition @ 1 uM” value is recorded as “+ + + + (“+ + + +” compound exhibited 75% or greater inhibition of calcium ion influx induced by capsaicin stimulation.)”.
The same measure for `CCN(CC)c1ccc(NC(=O)c2ccc(-c3ncccc3Cl)cc2)cc1` [Compound 44]: “+ + + + (compound exhibited 75% or greater inhibition of calcium ion influx induced by capsaicin stimulation)”; for `CCOc1ccc(NC(=O)c2ccc(-c3ncccc3Cl)c(OC)c2)cc1` [Compound 256]: “+ (“+” compound exhibited 0-25% inhibition of calcium ion influx induced by capsaicin stimulation.)”.
The same measure for `N#Cc1cccc(NC(=O)c2ccc(-c3ncccc3Cl)c(F)c2)c1` [Compound 124]: “+ + + + (compound exhibited 75% or greater inhibition of calcium ion influx induced by capsaicin stimulation)”; for `COc1cccc(NC(=O)c2ccc(-c3ncccc3Cl)cc2F)c1` [Compound 74]: “+ (compound exhibited 0-25% inhibition of calcium ion influx induced by capsaicin stimulation)”; for `COc1cc(C(=O)Nc2cccc(C#N)c2)ccc1-c1ncccc1Cl` [Compound 201]: “+ + + + (“+ + + +” compound exhibited 75% or greater inhibition of calcium ion influx induced by capsaicin stimulation.)”.
The same measure for `O=C(O)c1cccc(NC(=O)c2ccc(-c3ncccc3Cl)c(F)c2)c1` [Compound 165]: “+ (compound exhibited 0-25% inhibition of calcium ion influx induced by capsaicin stimulation)”; for `O=C(Nc1cccnc1)c1ccc(-c2ncccc2Cl)cc1F` [Compound 63]: “+ (compound exhibited 0-25% inhibition of calcium ion influx induced by capsaicin stimulation)”; for `CCCCc1ccc(NC(=O)c2ccc(-c3ncccc3Cl)cc2)cc1` [Compound 26]: “+ + (compound exhibited 25-50% inhibition of calcium ion influx induced by capsaicin stimulation)”.
`O=C(Nc1ccc2cn[nH]c2c1)c1ccc(-c2ncccc2Cl)cc1` [Compound 273]: the “% Inhibition @ 1 uM” value was “+ + (“+ +” compound exhibited 25-50% inhibition of calcium ion influx induced by capsaicin stimulation.)”.
The same measure for `O=C(Nc1ccc([N+](=O)[O-])cc1)c1ccc(-c2ncccc2Cl)cc1` [Compound 56]: “+ + + + (compound exhibited 75% or greater inhibition of calcium ion influx induced by capsaicin stimulation)”; for `COc1cc(C(=O)Nc2ccnc(Cl)c2)ccc1-c1ncccc1Cl` [Compound 231]: “+ (“+” compound exhibited 0-25% inhibition of calcium ion influx induced by capsaicin stimulation.)”.
With `COc1cc(C(=O)Nc2ccc(C(F)(F)F)cc2)ccc1-c1ncccc1Cl` [Compound 213], the “% Inhibition @ 1 uM” value was “+ + (“+ +” compound exhibited 25-50% inhibition of calcium ion influx induced by capsaicin stimulation.)”.
With `O=C(Nc1ccc(C(F)(F)F)cn1)c1ccc(-c2ncccc2Cl)c(F)c1` [Compound 149], the “% Inhibition @ 1 uM” value is on record as “+ + (compound exhibited 25-50% inhibition of calcium ion influx induced by capsaicin stimulation)”.
The same measure for `O=C(Nc1ccc(N2CCNCC2)cc1)c1ccc(-c2ncccc2Cl)cn1` [Compound 317]: “+ (“+” compound exhibited 0-25% inhibition of calcium ion influx induced by capsaicin stimulation.)”; for `COc1cc(NC(=O)c2ccc(-c3ncccc3Cl)cc2)cc(C(F)(F)F)c1` [Compound 28]: “+ + (compound exhibited 25-50% inhibition of calcium ion influx induced by capsaicin stimulation)”; for `O=C(Nc1ccc(Cl)c(C(F)(F)F)c1)c1ccc(-c2ncccc2Cl)cc1` [Compound 20]: “+ + + (compound exhibited 50-75% inhibition of calcium ion influx induced by capsaicin stimulation)”.
In the case of `O=C(Nc1cccc(OC(F)(F)F)c1)c1ccc(-c2ncccc2Cl)cc1` [Compound 277], the “% Inhibition @ 1 uM” value is listed as “+ (“+” compound exhibited 0-25% inhibition of calcium ion influx induced by capsaicin stimulation.)”.
The same measure for `O=C(Nc1ccccc1)c1ccc(-c2ncccc2Cl)cc1` [Compound 3]: “+ (compound exhibited 0-25% inhibition of calcium ion influx induced by capsaicin stimulation)”; for `COc1cc(C(=O)Nc2ccc(C#N)c(Cl)c2)ccc1-c1ncccc1Cl` [Compound 248]: “+ + + + (“+ + + +” compound exhibited 75% or greater inhibition of calcium ion influx induced by capsaicin stimulation.)”; for `O=C(Nc1ccc(OCc2ccccc2)cc1)c1ccc(-c2ncccc2Cl)cn1` [Compound 332]: “+ (“+” compound exhibited 0-25% inhibition of calcium ion influx induced by capsaicin stimulation.)”.
In the case of `CC(C)(C)c1ccc(NC(=O)c2ccc(-c3ncccc3Cl)c(F)c2)cc1` [Compound 125], the “% Inhibition @ 1 uM” value is on record as “+ + + + (compound exhibited 75% or greater inhibition of calcium ion influx induced by capsaicin stimulation)”.
Regarding `O=C(Nc1ccc(OC(F)(F)F)cc1)c1ccc(-c2ncccc2Cl)cc1` [Compound 276], the “% Inhibition @ 1 uM” value is listed as “+ (“+” compound exhibited 0-25% inhibition of calcium ion influx induced by capsaicin stimulation.)”.
The same measure for `COc1cc(NC(=O)c2ccc(-c3ncccc3Cl)cn2)cc(C(F)(F)F)c1` [Compound 311]: “+ (“+” compound exhibited 0-25% inhibition of calcium ion influx induced by capsaicin stimulation.)”.
